# Measured values taken from patent US10081812B2, “D-amino acid-inducible gene expression system for Rhodosporidium and Rhodotorula” (TEMASEK LIFE SCIENCES LABORATORY LIMITED, priority 2015, dated 2018).
# Experiments:
# [1] = test system: DAO1 mRNA transcripts / Dao1 protein; conditions: induction with D-alanine; cited from earlier work
# [2] = test system: DAO1 promoter (PDAO1in); assay: Luciferase reporter assay of 2.2 kb intron 1-containing DAO1 promoter (PDAO1in) reporter strains; type: cell-based, R. toruloides; conditions: for induction of DAO1 promoter by D-amino acid: 70 mM as the sole carbon and nitrogen source in MinABs, 21 h induction, FIG. 8
# Method: (§1) For gene induction studies, modified MinAB (MinABs) (28) with carbon source and nitrogen source (NH4NO3) omitted was used as basal medium. Carbon source (10 g/L glucose, 70 mM L-alanine or D-alanine) and nitrogen source (70 mM ammonium sulfate, L-alanine or D-alanine) were supplemented as required. For stress treatments, YPD broth was used as the basal medium and cultured after supplementation of various chemicals, or in harsh conditions. Unless indicated otherwise, cell cultures were conducted in a rotary shaker under 28° C. and 250 rpm.
# Yeast strains transformed with PDAOinx::RtLUC2 cassettes were cultured in YPD broth to mid-exponential phase. Cells were water-washed twice and resuspended in MinABs plus 70 mM of either D-alanine or L-alanine to a cell optical density at 600 nm (OD600) of 0.5 and continued culturing at 30° C., 250 rpm for 21 hr. Cells were harvested, washed and resuspended in PBS buffer supplemented with 1 mM DTT, 3 mM β-mercaptoethanol and 1 mM PMSF (pH7.4) supplemented with equal volume of 0.5 mm glass beads (Sigma-Aldrich, USA), and lysed with FastPrep 24™ 5 G (MP Biomedicals, Irvine, Calif., USA) for 40 seconds. The protein concentration and luciferase activity was determined using Bradford method and a commercial luciferase assay kit (Promega, USA) under the supplier's protocol, respectively. All data was measured and acquired with the Infinite M200 plate reader coupled with the iCycler software (version 3.0, Tecan, Salzburg, Austria). All experiments were performed in both biological and statistical triplicates. For determination of relative promoter activity (RPA), luminescence value was subtracted against the blank or negative control (promoter-less strain), normalized against the protein concentration, then normalized against either the values of PGPD1 or the maximum reading.
# To investigate the effects of carbon and nitrogen sources on promoter activity, 3 strains with 2.2 kb intron 1-containing DAO1 promoter (PDAO1in) knocked in at the CAR2 locus were cultured in the modified MinAB medium (MinABs), which had glucose and ammonium sulfate supplemented to the basal medium MinAB when necessary.
# Here, substrate selectivity of the 2.2 kb DAO1 promoter (PDAO1in) reporter strains was investigated on their inducibility by different D-amino acids.
# [3] = test system: DAO1 mRNA; assay: qRT-PCR of DAO1 mRNA transcripts in R. toruloides cells; type: cell-based
# Method: as §1
# Total RNA was treated with DNase I (Roche Diagnostics) and recovered by ethanol precipitation to remove the trace DNA. cDNA was synthesized using the iScript™ Reverse Transcription Supermix for RT (Bio-Rad, USA) and real-time PCR was conducted in ABI PRISM 7900HT Sequence Detection System (Life Technologies, USA) using the ABI SYBR® Select Master Mix (Life Technologies, USA). PCR conditions were as followed: an initial 50° C. for 2 min and 95° C. denaturation step for 10 min followed by 40 cycles of denaturation at 95° C. for 15 s, annealing at 60° C. for 1 min. Triplicates were used for all qRT-PCR analyses. The data was acquired using the software SDS 2.4 (Applied Biosystems, Life Technologies, USA) and relative gene expression was calculated against the reference gene ACT1 (nucleotide sequence: SEQ ID NO:89; amino acid sequence: SEQ ID NO:90) with the 2-ΔΔCt method through the RQ Manager software v1.2.1 (Applied Biosystems, USA).
# To investigate the regulation DAO1 gene expression, the mRNA level in cells cultured in YPD medium supplemented with D-alanine or L-alanine levels was quantitated by qRT-PCR using the Actin mRNA (ACT1) as the reference. As expected, DAO1 mRNA expression was negligible when cells were cultured in MinABs medium supplemented with L-alanine or ammonium sulfate as the sole nitrogen source (FIG. 4B).
smiles,measurement,setting,value
C[C@@H](N)C(=O)O [D-alanine],Dao1 protein share of the soluble intracellular proteins,[1],1.0%
same,time of peak of DAO1 mRNA transcripts after induction,[1],≤ 12 h
same,induction of DAO1 promoter by D-amino acid,[2],most preferably induced
same,luciferase expression among media,"[2]; MinABs supplemented with 70 mM D-alanine only, FIG. 7A",Best luciferase expression
same,concentration effective in driving expression of the reporter gene (as low as),"[2]; MinABs with 10 g/L glucose, FIG. 7B",20 mM
same,DAO1 mRNA level relative to control medium,"[3]; 6-hr after D-alanine supplementation, both glucose and ammonium sulfate omitted, FIG. 4B",~100 fold
same,DAO1 mRNA level increase,"[3]; cultured in the presence of 70 mM D-alanine, ACT1 reference, FIG. 4B",12-18 folds
CC(C)C[C@@H](N)C(=O)O [D-leucine],induction of DAO1 promoter by D-amino acid,[2],significantly less effective
CSCC[C@@H](N)C(=O)O [D-methionine],induction of DAO1 promoter by D-amino acid,[2],significantly less effective
N[C@H](Cc1ccccc1)C(=O)O [D-phenylalanine],induction of DAO1 promoter by D-amino acid,[2],significantly less effective
O=C(O)[C@H]1CCCN1 [D-proline],induction of DAO1 promoter by D-amino acid,[2],similarly effective
N[C@H](CO)C(=O)O [D-serine],induction of DAO1 promoter by D-amino acid,[2],similarly effective
C[C@H](O)[C@@H](N)C(=O)O [D-threonine],induction of DAO1 promoter by D-amino acid,[2],similarly effective
N[C@H](Cc1c[nH]c2ccccc12)C(=O)O [D-tryptophan],induction of DAO1 promoter by D-amino acid,[2],significantly less effective
CC(C)[C@@H](N)C(=O)O [D-valine],induction of DAO1 promoter by D-amino acid,[2],similarly effective
C[C@H](N)C(=O)O [L-alanine],reduction of luciferase expression,"[2]; equal level (70 mM) added as the competitor to 70 mM D-alanine, after 21 hr culture, FIG. 7A",about 5 fold
same,DAO1 mRNA expression,"[3]; MinABs medium, substance as the sole nitrogen source, FIG. 4B",negligible
N.N.O=S(=O)(O)O [ammonium sulfate],effect on D-alanine-induced DAO1in promoter activity,"[2]; added to MinABs with 70 mM D-alanine, glucose 10 g/L, ammonium sulfate 70 mM, FIG. 7A",little effect
same,effect of concentration on DAO1 promoter activity,"[2]; glucose 10-100 g/L, ammonium sulfate 5-50 mM, with 70 mM D-alanine, FIGS. 7C and 7D",only marginal effects
OCC(O)CO [glycerol],DAO1 transcription compared to that of glucose,"[3]; substance as the sole carbon source (YPG broth), 6 hour, 28° C., FIG. 4C",enhance DAO1 transcription
